Paper PMC6979384, “Characterization of the plant homeodomain (PHD) reader family for their histone tail interactions” (Epigenetics & Chromatin, 2020)

Assays:
Assay in all cases: Histone peptide microarray
Assay type in all cases: binding, human
AIRE (PP) = conditions: each array performed twice, total n = 4; for Array Heatmap signal (histone peptide microarray): GST-tagged AIRE (PP), sheet Array Heatmap
Outline: (§1)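 GST-tagged PHD readers, 0.5 μM, probed on a microarray of 293 synthetic histone peptides carrying single or combinatorial PTMs (optimized Petell protocol). Signals are averaged over 4 replicates and expressed as relative binding.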

BAZ2B = conditions: each array performed twice, total n = 4; for Array Heatmap signal (histone peptide microarray): GST-tagged BAZ2B, sheet Array Heatmap
Outline: as §1

BPTF (PB) = conditions: each array performed twice, total n = 4; for Array Heatmap signal (histone peptide microarray): GST-tagged BPTF (PB = PHD + Bromodomain), sheet Array Heatmap
Outline: as §1

CHD4 (PPCC) = conditions: each array performed twice, total n = 4; for Array Heatmap signal (histone peptide microarray): GST-tagged CHD4 (PPCC = Dual PHD + Dual Chromodomain), sheet Array Heatmap
Outline: as §1

CHD5 (PCC) = conditions: each array performed twice, total n = 4; for Array Heatmap signal (histone peptide microarray): GST-tagged CHD5 (PCC = PHD + Dual Chromodomain), sheet Array Heatmap
Outline: as §1

CHD5 (PPCC) = conditions: each array performed twice, total n = 4; for Array Heatmap signal (histone peptide microarray): GST-tagged CHD5 (PPCC = Dual PHD + Dual Chromodomain), sheet Array Heatmap
Outline: as §1

DIDO1 = conditions: each array performed twice, total n = 4; for Array Heatmap signal (histone peptide microarray): GST-tagged DIDO1, sheet Array Heatmap
Outline: as §1

DPF2 (PPC2W2) = conditions: each array performed twice, total n = 4; for Array Heatmap signal (histone peptide microarray): GST-tagged DPF2 (PPC2W2 = Dual PHD + C2W2-type Zn-finger), sheet Array Heatmap
Outline: as §1

ING1 = conditions: each array performed twice, total n = 4; for Array Heatmap signal (histone peptide microarray): GST-tagged ING1, sheet Array Heatmap
Outline: as §1

ING2 = conditions: each array performed twice, total n = 4; for Array Heatmap signal (histone peptide microarray): GST-tagged ING2, sheet Array Heatmap
Outline: as §1

ING3 = conditions: each array performed twice, total n = 4; for Array Heatmap signal (histone peptide microarray): GST-tagged ING3, sheet Array Heatmap
Outline: as §1

ING4 = conditions: each array performed twice, total n = 4; for Array Heatmap signal (histone peptide microarray): GST-tagged ING4, sheet Array Heatmap
Outline: as §1

ING5 = conditions: each array performed twice, total n = 4; for Array Heatmap signal (histone peptide microarray): GST-tagged ING5, sheet Array Heatmap
Outline: as §1

KDM4C (TTP) = conditions: each array performed twice, total n = 4; for Array Heatmap signal (histone peptide microarray): GST-tagged KDM4C (TTP = Tandem Tudor domain + PHD), sheet Array Heatmap
Outline: as §1

KDM5A (1) = conditions: each array performed twice, total n = 4; for Array Heatmap signal (histone peptide microarray): GST-tagged KDM5A (1), sheet Array Heatmap
Outline: as §1

KDM5A (3) = conditions: each array performed twice, total n = 4; for Array Heatmap signal (histone peptide microarray): GST-tagged KDM5A (3), sheet Array Heatmap
Outline: as §1

KDM5B (1) = conditions: each array performed twice, total n = 4; for Array Heatmap signal (histone peptide microarray): GST-tagged KDM5B (1), sheet Array Heatmap
Outline: as §1

KDM5B (3) = conditions: each array performed twice, total n = 4; for Array Heatmap signal (histone peptide microarray): GST-tagged KDM5B (3), sheet Array Heatmap
Outline: as §1

KDM7A = conditions: each array performed twice, total n = 4; for Array Heatmap signal (histone peptide microarray): GST-tagged KDM7A, sheet Array Heatmap
Outline: as §1

MLL5 = conditions: each array performed twice, total n = 4; for Array Heatmap signal (histone peptide microarray): GST-tagged MLL5, sheet Array Heatmap
Outline: as §1

MORC3 (CW) = conditions: each array performed twice, total n = 4; for Array Heatmap signal (histone peptide microarray): GST-tagged MORC3 (CW = CW-type Zn-finger), sheet Array Heatmap
Outline: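 Each reader, produced as a GST fusion and purified, was tested at 0.5 μM on synthetic histone peptides (293 in total) carrying single or combinatorial marks. Intensities averaged over four replicates.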

PHF13 = conditions: each array performed twice, total n = 4; for Array Heatmap signal (histone peptide microarray): GST-tagged PHF13, sheet Array Heatmap
Outline: as §1

PHF21A = conditions: each array performed twice, total n = 4; for Array Heatmap signal (histone peptide microarray): GST-tagged PHF21A, sheet Array Heatmap
Outline: as §1

PHF23 = conditions: each array performed twice, total n = 4; for Array Heatmap signal (histone peptide microarray): GST-tagged PHF23, sheet Array Heatmap
Outline: as §1

PHF2 = conditions: each array performed twice, total n = 4; for Array Heatmap signal (histone peptide microarray): GST-tagged PHF2, sheet Array Heatmap
Outline: as §1

PHF8 = conditions: each array performed twice, total n = 4; for Array Heatmap signal (histone peptide microarray): GST-tagged PHF8, sheet Array Heatmap
Outline: as §1

PHRF1 (RP) = conditions: each array performed twice, total n = 4; for Array Heatmap signal (histone peptide microarray): GST-tagged PHRF1 (RP), sheet Array Heatmap
Outline: as §1

RAG2 = conditions: each array performed twice, total n = 4; for Array Heatmap signal (histone peptide microarray): GST-tagged RAG2, sheet Array Heatmap
Outline: as §1

SP140L = conditions: each array performed twice, total n = 4; for Array Heatmap signal (histone peptide microarray): GST-tagged SP140L, sheet Array Heatmap
Outline: as §1

TAF3 = conditions: each array performed twice, total n = 4; for Array Heatmap signal (histone peptide microarray): GST-tagged TAF3, sheet Array Heatmap
Outline: as §1

TRIM66 (PB) = conditions: each array performed twice, total n = 4; for Array Heatmap signal (histone peptide microarray): GST-tagged TRIM66 (PB = PHD + Bromodomain), sheet Array Heatmap
Outline: as §1

## H3K4ac + K18ac: H3 1-20
AIRE (PP)
  Array Heatmap signal (histone peptide microarray): 0.4624
BAZ2B
  Array Heatmap signal (histone peptide microarray): 0.4765
BPTF (PB)
  Array Heatmap signal (histone peptide microarray): 0.3724
CHD4 (PPCC)
  Array Heatmap signal (histone peptide microarray): 0.5623
CHD5 (PCC)
  Array Heatmap signal (histone peptide microarray): 0.8291
CHD5 (PPCC)
  Array Heatmap signal (histone peptide microarray): 0.5589
DIDO1
  Array Heatmap signal (histone peptide microarray): 0.6662
DPF2 (PPC2W2)
  Array Heatmap signal (histone peptide microarray): 0.6503
ING1
  Array Heatmap signal (histone peptide microarray): 0.5001
ING2
  Array Heatmap signal (histone peptide microarray): 0.6077
ING3
  Array Heatmap signal (histone peptide microarray): 0.5109
ING4
  Array Heatmap signal (histone peptide microarray): 0.455
ING5
  Array Heatmap signal (histone peptide microarray): 0.347
KDM4C (TTP)
  Array Heatmap signal (histone peptide microarray): 0.5036
KDM5A (1)
  Array Heatmap signal (histone peptide microarray): 0.4894
KDM5A (3)
  Array Heatmap signal (histone peptide microarray): 0.4876
KDM5B (1)
  Array Heatmap signal (histone peptide microarray): 0.6733
KDM5B (3)
  Array Heatmap signal (histone peptide microarray): 0.551
KDM7A
  Array Heatmap signal (histone peptide microarray): 0.4179
MLL5
  Array Heatmap signal (histone peptide microarray): 0.5346
MORC3 (CW)
  Array Heatmap signal (histone peptide microarray): 0.4359
PHF13
  Array Heatmap signal (histone peptide microarray): 0.6219
PHF21A
  Array Heatmap signal (histone peptide microarray): 0.4736
PHF23
  Array Heatmap signal (histone peptide microarray): 0.5594
PHF2
  Array Heatmap signal (histone peptide microarray): 0.5195
PHF8
  Array Heatmap signal (histone peptide microarray): 0.356
PHRF1 (RP)
  Array Heatmap signal (histone peptide microarray): 0.5224
RAG2
  Array Heatmap signal (histone peptide microarray): 0.291
SP140L
  Array Heatmap signal (histone peptide microarray): 0.3275
TAF3
  Array Heatmap signal (histone peptide microarray): 0.2831
TRIM66 (PB)
  Array Heatmap signal (histone peptide microarray): 0.6289

## H3K4ac: H3 1-20 [Peptide H3K4ac]
AIRE (PP)
  Array Heatmap signal (histone peptide microarray): 0.3833
BAZ2B
  Array Heatmap signal (histone peptide microarray): 0.4282
BPTF (PB)
  Array Heatmap signal (histone peptide microarray): 0.3314
CHD4 (PPCC)
  Array Heatmap signal (histone peptide microarray): 0.511
CHD5 (PCC)
  Array Heatmap signal (histone peptide microarray): 0.7194
CHD5 (PPCC)
  Array Heatmap signal (histone peptide microarray): 0.5057
DIDO1
  Array Heatmap signal (histone peptide microarray): 0.6919
DPF2 (PPC2W2)
  Array Heatmap signal (histone peptide microarray): 0.663
ING1
  Array Heatmap signal (histone peptide microarray): 0.5138
ING2
  Array Heatmap signal (histone peptide microarray): 0.6074
ING3
  Array Heatmap signal (histone peptide microarray): 0.4516
ING4
  Array Heatmap signal (histone peptide microarray): 0.4245
ING5
  Array Heatmap signal (histone peptide microarray): 0.3289
KDM4C (TTP)
  Array Heatmap signal (histone peptide microarray): 0.4265
KDM5A (1)
  Array Heatmap signal (histone peptide microarray): 0.429
KDM5A (3)
  Array Heatmap signal (histone peptide microarray): 0.4174
KDM5B (1)
  Array Heatmap signal (histone peptide microarray): 0.5705
KDM5B (3)
  Array Heatmap signal (histone peptide microarray): 0.4727
KDM7A
  Array Heatmap signal (histone peptide microarray): 0.3036
MLL5
  Array Heatmap signal (histone peptide microarray): 0.5593
MORC3 (CW)
  Array Heatmap signal (histone peptide microarray): 0.3459
PHF13
  Array Heatmap signal (histone peptide microarray): 0.5951
PHF21A
  Array Heatmap signal (histone peptide microarray): 0.424
PHF23
  Array Heatmap signal (histone peptide microarray): 0.5477
PHF2
  Array Heatmap signal (histone peptide microarray): 0.603
PHF8
  Array Heatmap signal (histone peptide microarray): 0.3449
PHRF1 (RP)
  Array Heatmap signal (histone peptide microarray): 0.4419
RAG2
  Array Heatmap signal (histone peptide microarray): 0.2316
SP140L
  Array Heatmap signal (histone peptide microarray): 0.3065
TAF3
  Array Heatmap signal (histone peptide microarray): 0.248
TRIM66 (PB)
  Array Heatmap signal (histone peptide microarray): 0.5857

## H3K4me1 (1-21): H3 1-21
AIRE (PP); AIRE (PP), sheet "Array Heatmap"
  Array Heatmap value (peptide array signal): 0.4291
BAZ2B; BAZ2B, sheet "Array Heatmap"
  Array Heatmap value (peptide array signal): 0.4634
BPTF (PB); BPTF (PB), sheet "Array Heatmap"
  Array Heatmap value (peptide array signal): 0.3509
CHD4 (PPCC); CHD4 (PPCC), sheet "Array Heatmap"
  Array Heatmap value (peptide array signal): 0.5532
CHD5 (PCC); CHD5 (PCC), sheet "Array Heatmap"
  Array Heatmap value (peptide array signal): 0.76
CHD5 (PPCC); CHD5 (PPCC), sheet "Array Heatmap"
  Array Heatmap value (peptide array signal): 0.5364
DIDO1; DIDO1, sheet "Array Heatmap"
  Array Heatmap value (peptide array signal): 0.6834
DPF2 (PPC2W2); DPF2 (PPC2W2), sheet "Array Heatmap"
  Array Heatmap value (peptide array signal): 0.6848
ING1; ING1, sheet "Array Heatmap"
  Array Heatmap value (peptide array signal): 0.559
ING2; ING2, sheet "Array Heatmap"
  Array Heatmap value (peptide array signal): 0.622
ING3; ING3, sheet "Array Heatmap"
  Array Heatmap value (peptide array signal): 0.4698
ING4; ING4, sheet "Array Heatmap"
  Array Heatmap value (peptide array signal): 0.4485
ING5; ING5, sheet "Array Heatmap"
  Array Heatmap value (peptide array signal): 0.355
KDM4C (TTP); KDM4C (TTP), sheet "Array Heatmap"
  Array Heatmap value (peptide array signal): 0.468
KDM5A (1); KDM5A (1), sheet "Array Heatmap"
  Array Heatmap value (peptide array signal): 0.4646
KDM5A (3); KDM5A (3), sheet "Array Heatmap"
  Array Heatmap value (peptide array signal): 0.5345
KDM5B (1); KDM5B (1), sheet "Array Heatmap"
  Array Heatmap value (peptide array signal): 0.658
KDM5B (3); KDM5B (3), sheet "Array Heatmap"
  Array Heatmap value (peptide array signal): 0.4879
KDM7A; KDM7A, sheet "Array Heatmap"
  Array Heatmap value (peptide array signal): 0.3293
MLL5; MLL5, sheet "Array Heatmap"
  Array Heatmap value (peptide array signal): 0.5781
MORC3 (CW); MORC3 (CW), sheet "Array Heatmap"
  Array Heatmap value (peptide array signal): 0.4815
PHF13; PHF13, sheet "Array Heatmap"
  Array Heatmap value (peptide array signal): 0.6202
PHF21A; PHF21A, sheet "Array Heatmap"
  Array Heatmap value (peptide array signal): 0.4499
PHF23; PHF23, sheet "Array Heatmap"
  Array Heatmap value (peptide array signal): 0.5596
PHF2; PHF2, sheet "Array Heatmap"
  Array Heatmap value (peptide array signal): 0.5317
PHF8; PHF8, sheet "Array Heatmap"
  Array Heatmap value (peptide array signal): 0.3966
PHRF1 (RP); PHRF1 (RP), sheet "Array Heatmap"
  Array Heatmap value (peptide array signal): 0.5109
RAG2; RAG2, sheet "Array Heatmap"
  Array Heatmap value (peptide array signal): 0.2554
SP140L; SP140L, sheet "Array Heatmap"
  Array Heatmap value (peptide array signal): 0.3636
TAF3; TAF3, sheet "Array Heatmap"
  Array Heatmap value (peptide array signal): 0.2643
TRIM66 (PB); TRIM66 (PB), sheet "Array Heatmap"
  Array Heatmap value (peptide array signal): 0.5876
